Reference: PubChem BioAssay AID248 (DTP/NCI, 2004)
Values joined by “and” are separate entries in the source; they are usually repeats but may differ in a detail not shown here. Equal entries are not always repeated. Toxic doses and inconclusive results are not listed. Rule as the data show it: active = T/C of 150% or more; inactive = T/C below 125%.

System: L1210 leukemia ip in BDF1 mice, survival T/C
Assay: NCI In Vivo Anticancer Drug Screen. Data for tumor model L1210 Leukemia (intraperitoneal) in B6D2F1 (BDF1) mice
Settings: endpoint: mean survival time, higher = longer survival
Method in brief: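 Tumor was transplanted into mice, which were then dosed with test compound or vehicle alone. Survival was recorded for each group, and the treated figure was expressed relative to the control figure.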

[1] = dose: 100.0 mg/kg/injection, schedule: Q04DX003 (ip), vehicle: Klucel (hydroxypropylcellulose) (HPC)
[2] = dose: 200.0 mg/kg/injection, schedule: Q04DX003 (ip), vehicle: Klucel (hydroxypropylcellulose) (HPC)
[3] = dose: 400.0 mg/kg/injection, schedule: Q04DX003 (ip), vehicle: Klucel (hydroxypropylcellulose) (HPC)
[4] = dose: 25.0 mg/kg/injection, schedule: Q01DX009 (ip), vehicle: saline
[5] = dose: 25.0 mg/kg/injection, schedule: Q04DX003 (ip), vehicle: saline
[6] = dose: 50.0 mg/kg/injection, schedule: Q01DX009 (ip), vehicle: saline
[7] = dose: 100.0 mg/kg/injection, schedule: Q01DX009 (ip), vehicle: saline
[8] = dose: 100.0 mg/kg/injection, schedule: Q04DX003 (ip), vehicle: saline
[9] = dose: 50.0 mg/kg/injection, schedule: Q01DX001 (ip), vehicle: saline
[10] = dose: 100.0 mg/kg/injection, schedule: Q01DX001 (ip), vehicle: saline

Measured: T/C

CNc1cccc(C(=O)O)c1
inactive: dose: 100.0 mg/kg/injection, schedule: Q01DX001 (ip), vehicle: Klucel (hydroxypropylcellulose) (HPC) 91 % of control | [1] 113 % of control | dose: 200.0 mg/kg/injection, schedule: Q01DX001 (ip), vehicle: Klucel (hydroxypropylcellulose) (HPC) 102 % of control | [2] 107 % of control | dose: 400.0 mg/kg/injection, schedule: Q01DX001 (ip), vehicle: Klucel (hydroxypropylcellulose) (HPC) 98 % of control | [3] 97 % of control

c1ccc(OCC2(N3CCCCC3)CCCC2)cc1
inactive: dose: 100.0 mg/kg/injection, schedule: Q04DX002 (ip), vehicle: saline with Tween-80 97 % of control

CCP(C)(=S)CC
inactive: dose: 100.0 mg/kg/injection, schedule: Q01DX009 (ip), vehicle: Klucel (hydroxypropylcellulose) (HPC) 101 % of control | dose: 200.0 mg/kg/injection, schedule: Q01DX009 (ip), vehicle: Klucel (hydroxypropylcellulose) (HPC) 100 % of control | dose: 400.0 mg/kg/injection, schedule: Q01DX009 (ip), vehicle: Klucel (hydroxypropylcellulose) (HPC) 100 % of control

CCCCCCCCCCCC(=O)Nc1ccc(SSc2ccc(NC(=O)CCCCCCCCCCC)cc2)cc1
inactive: dose: 50.0 mg/kg/injection, schedule: Q01DX001 (ip), vehicle: carboxymethylcellulose (CMC) 97 % of control | dose: 100.0 mg/kg/injection, schedule: Q01DX001 (ip), vehicle: carboxymethylcellulose (CMC) 103 % of control | dose: 200.0 mg/kg/injection, schedule: Q01DX001 (ip), vehicle: carboxymethylcellulose (CMC) 90 % of control | dose: 400.0 mg/kg/injection, schedule: Q01DX001 (ip), vehicle: carboxymethylcellulose (CMC) 101 % of control

S=C=NCCc1ccccc1
inactive: dose: 12.5 mg/kg/injection, schedule: Q01DX009 (ip), vehicle: saline with Tween-80 101 % of control | dose: 25.0 mg/kg/injection, schedule: Q01DX009 (ip), vehicle: saline with Tween-80 104 % of control | dose: 50.0 mg/kg/injection, schedule: Q01DX009 (ip), vehicle: saline with Tween-80 108 % of control | dose: 100.0 mg/kg/injection, schedule: Q01DX009 (ip), vehicle: saline with Tween-80 87 % of control

O=[N+]([O-])c1ccc(/C=C/c2ncccn2)o1
inactive: [1] 97 % of control | [2] 103 % of control | [3] 97 % of control

CCOC(=O)N(Cc1ccccc1)C1CC1
inactive: [4] 95 % of control | [5] 104 % of control | [6] 104 % of control | [7] 102 % of control | [8] 104 % of control | dose: 200.0 mg/kg/injection, schedule: Q01DX009 (ip), vehicle: saline 98 % of control | dose: 200.0 mg/kg/injection, schedule: Q04DX003 (ip), vehicle: saline 104 % of control | dose: 400.0 mg/kg/injection, schedule: Q01DX009 (ip), vehicle: saline 103 % of control | dose: 400.0 mg/kg/injection, schedule: Q04DX003 (ip), vehicle: saline 102 % of control

CCCc1ccc(OCC(=O)O)c(OC)c1
inactive: dose: 75.0 mg/kg/injection, schedule: Q01DX001 (ip), vehicle: acetone 93 % of control | dose: 150.0 mg/kg/injection, schedule: Q01DX001 (ip), vehicle: acetone 92 % of control | dose: 300.0 mg/kg/injection, schedule: Q01DX001 (ip), vehicle: acetone 88 % of control

CSc1nnc(-c2ccc(OCCOc3ccc(C(C)(C)CC(C)(C)C)cc3)cc2)s1
inactive: dose: 100.0 mg/kg/injection, schedule: Q04DX003 (ip), vehicle: saline with Tween-80 89 % of control | dose: 200.0 mg/kg/injection, schedule: Q04DX003 (ip), vehicle: saline with Tween-80 94 % of control | dose: 400.0 mg/kg/injection, schedule: Q04DX003 (ip), vehicle: saline with Tween-80 91 % of control

COc1cc(-c2ccc(Nc3ccccc3C(=O)O)c(OC)c2)ccc1N
inactive: dose: 15.0 mg/kg/injection, schedule: Q01DX Z (ip), vehicle: carboxymethylcellulose (CMC) 102 % of control | dose: 22.0 mg/kg/injection, schedule: Q01DX Z (ip), vehicle: carboxymethylcellulose (CMC) 117 % of control | dose: 23.0 mg/kg/injection, schedule: Q01DX Z (ip), vehicle: carboxymethylcellulose (CMC) 112 % of control | dose: 35.0 mg/kg/injection, schedule: Q01DX Z (ip), vehicle: carboxymethylcellulose (CMC) 111 % of control and 121 % of control | [9] 121 % of control | [10] 115 % of control | dose: 200.0 mg/kg/injection, schedule: Q01DX001 (ip), vehicle: saline 114 % of control

CC[CH2][Sn]([CH2]CC)[CH2]CC.CC[CH2][Sn]([CH2]CC)[CH2]CC
inactive: dose: 12.5 mg/kg/injection, schedule: Q01DX009 (sc), vehicle: olive oil, sesame oil, peanut oil 97 % of control | dose: 25.0 mg/kg/injection, schedule: Q01DX009 (sc), vehicle: olive oil, sesame oil, peanut oil 100 % of control | dose: 25.0 mg/kg/injection, schedule: Q04DX002 (sc), vehicle: olive oil, sesame oil, peanut oil 102 % of control | dose: 50.0 mg/kg/injection, schedule: Q04DX002 (sc), vehicle: olive oil, sesame oil, peanut oil 102 % of control | dose: 100.0 mg/kg/injection, schedule: Q04DX002 (sc), vehicle: olive oil, sesame oil, peanut oil 115 % of control

CC(=O)c1c(O)c(C)c(O)c2c1OC1=CC(=O)C(C(C)=O)C(=O)C12C (configuration not stated)
inactive: dose: 5.0 mg/kg/injection, schedule: Q01DX009 (ip), vehicle: gum acacia 103 % of control | dose: 10.0 mg/kg/injection, schedule: Q01DX009 (ip), vehicle: gum acacia 101 % of control | dose: 20.0 mg/kg/injection, schedule: Q01DX009 (ip), vehicle: gum acacia 103 % of control | dose: 40.0 mg/kg/injection, schedule: Q01DX009 (ip), vehicle: gum acacia 94 % of control | dose: 80.0 mg/kg/injection, schedule: Q01DX009 (ip), vehicle: gum acacia 86 % of control

CNc1cc(Cl)c(Cl)cc1[N+](=O)[O-]
inactive: dose: 100.0 mg/kg/injection, schedule: Q01DX009 (ip), vehicle: saline sonified 98 % of control | [1] 95 % of control | dose: 200.0 mg/kg/injection, schedule: Q01DX009 (ip), vehicle: saline sonified 98 % of control | [2] 98 % of control | dose: 400.0 mg/kg/injection, schedule: Q01DX009 (ip), vehicle: saline sonified 98 % of control | [3] 104 % of control

C/C(=N\[N+](C)(C)C)c1ccc(Br)cc1
inactive: dose: 12.5 mg/kg/injection, schedule: Q04DX003 (ip), vehicle: saline 109 % of control | [4] 92 % of control | [5] 100 % of control | [6] 91 % of control | dose: 50.0 mg/kg/injection, schedule: Q04DX003 (ip), vehicle: saline 104 % of control | [7] 91 % of control | [8] 102 % of control

CCCCCCCCCCCCCCCCSc1ccc2ccccc2c1
inactive: [1] 100 % of control | [2] 96 % of control | [3] 87 % of control

CC(=O)OCC(OC(C)=O)C(OC(C)=O)C(OC(C)=O)C(/C=N/NC(N)=S)=N/NC(N)=S (configuration not stated)
inactive: dose: 100.0 mg/kg/injection, schedule: Q01DX009 (ip), vehicle: other 95 % of control | dose: 100.0 mg/kg/injection, schedule: Q04DX003 (ip), vehicle: other 98 % of control | dose: 200.0 mg/kg/injection, schedule: Q01DX009 (ip), vehicle: other 91 % of control | dose: 200.0 mg/kg/injection, schedule: Q04DX003 (ip), vehicle: other 103 % of control | dose: 400.0 mg/kg/injection, schedule: Q04DX003 (ip), vehicle: other 103 % of control

C=CCNC(=S)NNC(=O)CCCC(=O)NNC(=S)NCC=C
inactive: [9] 90 % of control | [10] 93 % of control | dose: 400.0 mg/kg/injection, schedule: Q01DX001 (ip), vehicle: saline 102 % of control
